Like-named read-outs stand apart in the source and are kept apart here.
How the values were obtained:
[1] = system: anoxia induced by sodium nitrite in mice; assay: Anti-cerebral anoxia in mice, anoxia induced by sodium nitrite; type: in vivo; conditions: sodium nitrite 225 mg/kg ip, compound 20 mg/kg sc; for ILS at 20 mg/kg: Mus musculus, sc
Procedure: The rates of the prolongation of 9 compounds (IV-2, 10, 23, 32, 34, 36, 39, 40, 41) were more than 50%, which indicated the effect of anti-cerebral anoxia. IV-23 and IV-2 prolonged the survival duration by 100% of the animals, showing remarkably protective action for cerebral anoxia. (Table 3)
One model was established to test the time needed for mice to die because of anoxia caused by sodium nitrite (225 mg/kg, ip). IV-23 (20 mg/kg, sc) can prolong the time for 100%, indicating significant anti-cerebral anoxic anoxia activity.

[2] = system: NMDA receptor; assay: Maximum contraction of isolated guinea pig longitudinal ileum muscle preparations induced by L-Glu; conditions: for antagonism % (restrain rate of contraction of preparations): compound 10^−5M, contraction induced by L-Glu; for excitation: concentration, direct excitation of the preparation; for Glu-like excited action: excite preparations directly and induce contraction
Text: According to the literature (Luzzi, Br J Pharmacol, 95:1271, 1988), maximum contraction of isolated longitudinal ileomuscle preparations of guinea pig induced by L-Glu, were used to examine the activities of the compounds on the NMDA receptor.

[3] = system: focal cerebral ischemia in rats; assay: Focal cerebral ischemia in rats by occlusion of middle cerebral artery (MCA); type: in vivo; conditions: 20 mg/kg p.o.; for Neurological deficit 24 h: 24 h after operation
Procedure: The focal ischemia rat model by occlusion of middle cerebral artery (MCA) was used to determine the protective effects of the compounds on focal cerebral ischemia. The infarct size after focal cerebral ischemia and the weight percentage of cerebral hemisphere were calculated to evaluate the compounds' effects on focal cerebral ischemia.

[4] = mice, read-out: Prolonging the survival duration (%)
[5] = read-out: Prolonging the survival duration (%), mice

O=C(CN1CCN(CC(=O)c2ccc(Cl)cc2)CC1)c1ccc(Cl)cc1 [IV-6, N^1,N^4-di (4-chlorophenacyl) piperazine]
ILS at 20 mg/kg [1, 4]: 4%
antagonism % (restrain rate of contraction of preparations) [2]: 25%

CC(C(=O)c1ccccc1)N1CCN(CC(=O)NCc2ccccc2)CC1 (centres unmarked) [IV-26, N^1-(1-benzoylethyl)-N^4-[2-(benzylamino)-2-oxo-ethyl] piperazine]
ILS at 20 mg/kg [1, 5]: 36%

N#Cc1ccccc1-c1ccc(CS(=O)(=O)N2CCN(CC(=O)c3ccccc3)CC2)cc1 [IV-58, N^1-phenacyl-N^4-[4-(2-cyanophenyl)benzylsulfonyl] piperazine]
ILS at 20 mg/kg [1, 4]: 25%

COc1ccc2cc(C(=O)C(C)N3CCN(CC(=O)NCc4ccccc4)CC3)ccc2c1Cl (centres unmarked) [IV-33, N^1-[1-(5-chloro-6-methoxy-2-naphthoyl)ethyl]-N^4-[2-(benzylamino)-2-oxo-ethyl] piperazine]
Infarct volume [3]: 0.12 ± 0.04 g
Neurological deficit After operation [3]: 9.6 ± 0.6
Neurological deficit 24 h [3]: 8.4 ± 1.5

COc1ccc2cc(C(=O)C(C)N3CCN(CC(=O)NC(C)c4ccccc4)CC3)ccc2c1Cl (centres unmarked) [IV-49, N^1-[1-(5-chloro-6-methoxy-2-naphthoyl)ethyl]-N^4-[2-(1-phenylethanamino)-2-oxo-ethyl] piperazine]
Prolonging the survival duration (%) ([1]; mice): 30%

COc1ccc(C(=O)CN2CCN(C(=O)Cc3ccccc3O)CC2)cc1 [IV-16, N^1-(4-methoxyphenacyl)-N^4-[(2-hydroxy)phenylacetyl] piperazine]
ILS at 20 mg/kg [1, 5]: 30%

CC(C(=O)c1ccccc1)N1CCN(CC(=O)c2ccccc2)CC1 (centres unmarked) [IV-13, N^1-(1-benzoylethyl)-N^4-phenacyl-piperazine]
ILS at 20 mg/kg [1, 5]: 32%

O=C(CN1CCN(S(=O)(=O)Cc2ccc(Oc3ccccc3)cc2)CC1)c1ccccc1 [IV-53, N^1-phenacyl-N^4-(4-phenoxybenzylsulfonyl) piperazine]
ILS at 20 mg/kg [1, 4]: 15%

CC(C(=O)c1ccccc1)N1CCN(C(=O)[C@@H](O)c2ccccc2)CC1 (some centres unmarked) [IV-44, N^1-(S-2-hydroxy-1-oxo-2-phenylethyl)-N^4-(1-benzoylethyl) piperazine]
Prolonging the survival duration (%) ([1]; mice): 3%

O=C(CN1CCN(CC(=O)c2ccccc2)CC1)Nc1ccccc1 [IV-24, N^1-phenacyl-N^4-[2-(phenylamino)-2-oxo-ethyl] piperazine]
ILS at 20 mg/kg [1, 4]: 34%

O=C(CN1CCN(S(=O)(=O)Cc2ccc(C(F)(F)F)cc2)CC1)c1ccccc1 [IV-55, N^1-phenacyl-N^4-(4-trifluoromethylbenzylsulfonyl) piperazine]
ILS at 20 mg/kg [1, 4]: 4%

O=C(c1ccccc1)N1CCN(CC(O)c2ccccc2)CC1 (centres unmarked) [IV-34, N^1-benzoyl-N^4-(2-phenylethyl-2-ol) piperazine]
antagonism % (restrain rate of contraction of preparations) [2]: 25%

O=C(CN1CCN(S(=O)(=O)Cc2ccc(-c3ccccc3)cc2)CC1)c1ccccc1 [IV-56, N^1-phenacyl-N^4-(4-phenylbenzylsulfonyl) piperazine]
ILS at 20 mg/kg [1, 4]: 25%

O=C(CN1CCN(CC(=O)NCc2ccccc2)CC1)NCc1ccccc1 [IV-25, N^1,N^4-di[2-(benzylamino)-2-oxo-ethyl] piperazine]
ILS at 20 mg/kg [1, 4]: 30%

CC(C(=O)c1ccccc1)N1CCN(C(=O)C(O)c2ccc(Cl)cc2)CC1 (centres unmarked) [IV-17, N^1-(1-benzoylethyl)-N^4-[2-hydroxy-2-(4-chlorophenyl)acetyl] piperazine]
ILS at 20 mg/kg [1, 5]: 14%

CNC1(c2ccccc2Cl)CCCCC1=O (centres unmarked) [Ket, Ketamine, reference compound]
antagonism (value printed as a concentration in the antagonism % column) ([2]; positive control, unit not given): 5.61 × 10^−7

O=C(CN1CCN(S(=O)(=O)Cc2ccc(F)cc2F)CC1)c1ccccc1 [IV-22, N^1-phenacyl-N^4-(2,4-difluorobenzylsulfonyl) piperazine]
ILS at 20 mg/kg [1, 4]: 26%
Infarct volume [3]: 0.10 ± 0.02 g
Neurological deficit After operation [3]: 9.6 ± 0.9
Neurological deficit 24 h [3]: 7.4 ± 2.4

COc1ccc2cc(C(=O)C(C)N3CCN(CC(=O)c4ccccc4)CC3)ccc2c1Cl (centres unmarked) [IV-20, N^1-phenacyl-N^4-[1-(5-chloro-6-methoxy-2-naphthoyl)ethyl]piperazine]
Infarct volume [3]: 0.14 ± 0.04 g
Neurological deficit After operation [3]: 9.5 ± 0.6
Percentage of infarct volume (%) [3]: 18.80 ± 5.61 %
Neurological deficit 24 h [3]: 8.8 ± 1.3

N#Cc1ccccc1-c1ccc(CS(=O)(=O)N2CCN(CC(=O)NCc3ccccc3)CC2)cc1 [IV-61, N^1-[2-(benzylamino)-2-oxo-ethyl]-N^4-[4-(2-cyanophenyl)benzylsulfonyl] piperazine]
ILS at 20 mg/kg [1, 4]: 22%

O=C(CN1CCN(CC(=O)c2ccc([N+](=O)[O-])cc2)CC1)c1ccccc1 [IV-11, N^1-phenacyl-N^4-(4-nitrophenacyl) piperazine]
ILS at 20 mg/kg [1, 4]: 2%
excitation ([2]; unit not given): 10^−5
Glu-like excited action [2]: could excite preparations directly

CC(C(=O)c1ccccc1)N1CCN(C(=O)Cc2ccccc2O)CC1 (centres unmarked) [IV-18, N^1-(1-benzoylethyl)-N^4-[(2-hydroxy)phenylacetyl] piperazine]
ILS at 20 mg/kg [1, 5]: 25%

N[C@@H](CCC(=O)O)C(=O)O [L-Glu, reference compound]
excitation ([2]; unit not given): 3.89 × 10^−5

O=C(CN1CCN(CC(O)c2ccccc2)CC1)NCc1ccccc1 (centres unmarked) [IV-37, N^1-[2-(benzylamino)-2-oxo-ethyl]-N^4-(2-phenylethyl-2-ol) piperazine]
Prolonging the survival duration (%) ([1]; mice): 13%

O=C(CN1CCN(S(=O)(=O)Cc2ccccc2CS(=O)(=O)c2ccccc2)CC1)NCc1ccccc1 [IV-62, N^1-[2-(benzylamino)-2-oxo-ethyl]-N^4-[2-(benzenesulfonylmethyl)benzylsulfonyl] piperazine]
ILS at 20 mg/kg [1, 4]: 36%

CC(C(O)c1ccc(O)cc1)N1CCC(Cc2ccccc2)CC1 (centres unmarked) [Ifenprodil, reference compound]
antagonism % (restrain rate of contraction of preparations) [2]: 41%(10^−5)

COc1ccc(C(=O)CN2CCN(CC(=O)c3ccccc3)CC2)cc1 [IV-9, N^1-phenacyl-N^4-(4-methoxyphenacyl) piperazine]
ILS at 20 mg/kg [1, 4]: 30%
excitation ([2]; unit not given): 10^−5
Glu-like excited action [2]: could excite preparations directly

N#Cc1cccc(CS(=O)(=O)N2CCN(CC(=O)c3ccccc3)CC2)c1 [IV-48, N^1-phenacyl-N^4-(3-cyanophenylmethylsulfonyl) piperazine]
ILS at 20 mg/kg [1, 4]: 16%

O=C(CN1CCN(CC(=O)c2ccc3ccccc3c2)CC1)c1ccccc1 [IV-7, N^1-(2-naphthoylmethyl)-N^4-phenacyl-piperazine]
ILS at 20 mg/kg [1, 4]: 21%
antagonism % (restrain rate of contraction of preparations) [2]: 25%

O=C(CN1CCN(CC(=O)c2ccccc2)CC1)NCc1ccc2c(c1)OCO2 [IV-32, N^1-phenacyl-N^4-[2-(3,4-methylenedioxybenzylamino)-2-oxo-ethyl] piperazine]
ILS at 20 mg/kg [1, 4]: > 50%

CC(C(=O)c1ccccc1)N1CCN(CC(=O)c2ccccc2)CC1 (centres unmarked) [IV-8, N^1-(1-benzoylethyl)-N^4-phenacyl-piperazine]
Prolonging the survival duration (%) ([1]; mice): 21%
antagonism % (restrain rate of contraction of preparations) [2]: 25%

O=C(CN1CCN(S(=O)(=O)Cc2ccc([N+](=O)[O-])cc2)CC1)NCc1ccccc1 [IV-64, N^1-[2-(benzylamino)-2-oxo-ethyl]-N^4-(4-nitrobenzylsulfonyl) piperazine]
ILS at 20 mg/kg [1, 4]: 20%

O=C(c1ccc([N+](=O)[O-])cc1)N1CCN(CC(O)c2ccccc2)CC1 (centres unmarked) [IV-35, N^1-(4-nitrobenzoyl)-N^4-(2-phenylethyl-2-ol) piperazine]
Prolonging the survival duration (%) ([1]; mice): 42%
excitation ([2]; unit not given): 3 × 10^−5
Glu-like excited action [2]: could excite preparations directly

CC(C(=O)c1ccccc1)N1CCN(C(C)C(=O)c2ccccc2)CC1 (centres unmarked) [IV-10, N^1,N^4-di (1-benzoylethyl) piperazine]
ILS at 20 mg/kg [1, 5]: > 50%
excitation ([2]; unit not given): 10^−5
Glu-like excited action [2]: could excite preparations directly

O=C(CN1CCN(CC(=O)c2ccccc2)CC1)c1ccccc1 [IV-2, N^1,N^4-diphenacyl-piperazine]
antagonism % (restrain rate of contraction of preparations) [2]: 25%

O=C(CN1CCN(C(=O)c2ccccc2)CC1)c1ccccc1 [IV-1, N^1-benzoyl-N^4-phenacyl-piperazine]
ILS at 20 mg/kg [1, 4]: 3%
excitation ([2]; unit not given): 3 × 10^−6
Glu-like excited action [2]: could excite preparations directly

O=C(CN1CCN(C(=O)C(O)c2ccc(Cl)cc2)CC1)c1ccccc1 (centres unmarked) [IV-19, N^1-phenacyl-N^4-[2-hydroxy-2-(4-chlorophenyl)acetyl] piperazine]
ILS at 20 mg/kg [1, 4]: 18%

O=C(CN1CCN(C(=O)c2ccc([N+](=O)[O-])cc2)CC1)c1ccccc1 [IV-3, N^1-(4-nitrobenzoyl)-N^4-phenacyl-piperazine]
ILS at 20 mg/kg [1, 4]: 7%
antagonism % (restrain rate of contraction of preparations) [2]: 37%

O=C(CN1CCN(CC(=O)c2ccc(Cl)cc2)CC1)c1ccccc1 [IV-5, N^1-phenacyl-N^4-(4-chlorophenacyl) piperazine]
ILS at 20 mg/kg [1, 4]: 22%
antagonism % (restrain rate of contraction of preparations) [2]: 30%

O=C(CN1CCN(S(=O)(=O)Cc2ccccc2CS(=O)(=O)c2ccccc2)CC1)c1ccccc1 [IV-54, N^1-phenacyl-N^4-[2-(benzenesulfonylmethyl)benzylsulfonyl] piperazine]
ILS at 20 mg/kg [1, 4]: 25%

Source: patent US7326710B2, “Aralkyl formyl-alkyl piperazine derivatives and their uses as a cerebral nerve protective agent” (Shanghai Institute of Pharmaceutical Industry, priority 2002, dated 2008)
